Earlier results as cited in patent US20070237796A1, “Stable High Pl Hydrogel Compositions” (priority 2003, published 2007).
Like-named read-outs stand apart in the source and are kept apart here.

OC[C@H]1O[C@@H](O[C@H]2[C@H](O)[C@@H](O)C(O)O[C@@H]2CO)[C@H](O)[C@@H](O)[C@H]1O (stereo partly drawn) [Lactose]
pKa: 11.98

OC[C@H]1O[C@@H]2O[C@H]3[C@H](O)[C@@H](O)[C@@H](O[C@H]4[C@H](O)[C@@H](O)[C@@H](O[C@H]5[C@H](O)[C@@H](O)[C@@H](O[C@H]6[C@H](O)[C@@H](O)[C@@H](O[C@H]7[C@H](O)[C@@H](O)[C@@H](O[C@H]8[C@H](O)[C@@H](O)[C@@H](O[C@H]1[C@H](O)[C@H]2O)O[C@@H]8CO)O[C@@H]7CO)O[C@@H]6CO)O[C@@H]5CO)O[C@@H]4CO)O[C@@H]3CO [β-cyclodextrin]
pKa (secondary OH): 12.20 (secondary OH)

O=C[C@H](O)[C@@H](O)[C@H](O)CO [Xylose]
pKa: 12.15

CO[C@H]1O[C@H](CO)[C@@H](O)[C@H](O)[C@H]1O [α-Methyl glucoside]
pKa: 13.71

O=C[C@H](O)[C@@H](O)[C@@H](O)[C@H](O)CO [Galactose]
pKa: 12.39

OC[C@H]1O[C@@H]2O[C@H]3[C@H](O)[C@@H](O)[C@@H](O[C@H]4[C@H](O)[C@@H](O)[C@@H](O[C@H]5[C@H](O)[C@@H](O)[C@@H](O[C@H]6[C@H](O)[C@@H](O)[C@@H](O[C@H]7[C@H](O)[C@@H](O)[C@@H](O[C@H]8[C@H](O)[C@@H](O)[C@@H](O[C@H]9[C@H](O)[C@@H](O)[C@@H](O[C@H]1[C@H](O)[C@H]2O)O[C@@H]9CO)O[C@@H]8CO)O[C@@H]7CO)O[C@@H]6CO)O[C@@H]5CO)O[C@@H]4CO)O[C@@H]3CO [γ-cyclodextrin]
pKa (secondary OH): 12.05 (secondary OH)
